Results from publication PMC8062851, “2-Methoxyestradiol and its derivatives inhibit store-operated Ca^2+ entry in T cells: Identification of a new and potent inhibitor” (Biochimica et Biophysica Acta. Molecular Cell Research, 2021).

Key:
human PBMCs = assay: In vitro activation of human PBMCs by anti-CD3, interferon-γ mRNA by qPCR; format: cell-based; conditions: human PBMC; anti-CD3 stimulation; 24 h; qPCR
Procedure: In vitro activation assays were performed in 96-well plates. Briefly, 10^5 PBMCs isolated from human peripheral blood by Ficoll gradient were added onto plates coated with anti-human CD3 monoclonal antibody (5 μg ml^−1 in PBS, clone OKT3, Biolegend). 2ME2 or STX564 dissolved in DMSO were added in varying concentrations (0.01, 0.1, 1, 10 μM). […]. PBMC activation on mRNA level was determined using qPCR on samples collected 24 h after CD3 stimulation.
Total RNA was isolated using the standard TRIzol method. cDNA was synthesized using the RevertAid First Strand cDNA Synthesis Kit (Thermo Fisher Scientific). Quantitative PCR (qPCR) was performed using the StepOnePlus™ Real-Time PCR System (Applied Biosystems), as previously described [[23], [24], [25]]. Rat TMBP cell data were obtained from three to four independent duplicate measurements. β-actin served as housekeeping gene. Human PBMC data were obtained from two independent healthy donors and duplicate measurements (representative data of one donor are shown). HPRT served as housekeeping gene. For all probes (TaqMan), a combination of 5′-FAM and 3′-TAMRA quencher was used as described.

SOCE in rat TMBP cells = assay: SOCE inhibition, Ca2+ free/Ca2+ re-addition protocol in primary rat TMBP cells; format: cell-based
Procedure: Jurkat T-lymphocytes, primary human CD4^+ T cells and H1299 cells were pelleted at 450 ×g for 5 min, rat TMBP at 300 ×g for 8 min at room temperature and were resuspended in 1 ml of either standard JMP medium (Jurkat, H1299 and human CD4^+ T cells) or standard DMEM based medium containing 10% fetal bovine serum (FBS) (v/v) (TMBP cells). Resting TMBP cells (day 5–7 after re-stimulation) after the second to fifth re-stimulation were thawed from liquid nitrogen 12 to 40 h prior to Fura2-loading. After pre-incubation for 5 min at 37 °C, cells were incubated with 4 μM Fura2-AM for 15 min at 37 °C. After addition of the dye, cells were kept in the dark. Afterwards, cells and the dye were diluted by addition of 4 ml standard medium and incubated for another 15 min. Cells were washed twice in Ca^2+ buffer (140 mM NaCl, 5 mM KCl, 1 mM MgSO4, 1 mM CaCl2, 1 mM NaH2PO4, 20 mM HEPES, 5.5 mM glucose; pH 7.4 (NaOH), sterile filtered) and were diluted to a concentration of 2*10^6 cells/ml. […]
10^6 Jurkat T-lymphocytes, H1299 cells, TMBP cells or 4*10^6 primary human CD4^+ T cells were added into a 10 × 10 mm quartz glass cuvette (Hellma Analytics, Germany) that was placed into a fluorescence spectrophotometer (F-2710, Hitachi, Japan). […] Fluorescence intensity was measured at an emission wavelength of 495 ± 5 nm for both excitation wavelengths. […]

[1] = system: Mn2+ entry into Jurkat T cells; assay: Mn2+ quenching of Fura2 after store depletion in Jurkat T cells; format: cell-based, human; conditions: store depletion by thapsigargin, 10 μM
Procedure: Mn^2+ quenching of Fura2 was used to analyze influx of divalent cations into Jurkat T cells. Like for Ca^2+ measurements, 10^6 loaded Jurkat T-lymphocytes were pelleted and Ca^2+ buffer was exchanged for nominal Ca^2+ free buffer (see above). Instead of Ca^2+, Mn^2+ was added 1220 s after the start of the measurement. To investigate Mn^2+ quenching independently of any effects of Ca^2+, Fura2 was excited at its isosbestic point, which was experimentally determined to be 357 nm. The emission wavelength was set to 495 nm. In contrast to the Ca^2+ measurement experiments, these measurements were not calibrated.
For quantitative analysis, the velocity of quenching was calculated as the initial slope. After Mn^2+ addition, there was a very fast drop in Fura2 fluorescence in all experiments. This drop lasted for about 10 s and was probably due to quenching of extracellular Fura2. […]
y0 is the fluorescence at the start of the decay, P is the theoretical fluorescence at the end of the decay at infinite times, K is the rate constant, and x is the time. […]
The fluorescence before Mn^2+ addition was fitted to a straight line using the following equation:(4) y’=m·x+c
m is the slope, x is the time and c is the y-intercept. […] So the initial slope (si) after Mn^2+ addition was calculated using the following equation:(5) si=(y0–P)*(-K)*e(-K*1230s)–m

TMBP cells = assay: In vitro activation of TMBP cells by MBP, CD25 surface expression by flow cytometry; format: cell-based, rat
Procedure: In vitro activation assays were performed in 96-well plates. […]. TMBP cell activation on mRNA level was determined using qPCR and on surface protein level using surface marker staining and subsequent flow cytometry analysis.
To assess in vitro T cell activation, surface staining for CD25 (OX39, Bio-Rad) was performed. APC-labelled goat anti-mouse antibody (Jackson ImmunoResearch) was used as secondary antibody. Mouse IgG1κ (MOPC 31C, Sigma-Aldrich) was used as control.
Cytofluorometric analysis was carried out with a CytoFLEX S (Beckman Coulter) operated by CytExpert software (Beckman Coulter). All procedures were performed at 4 °C. Data were analyzed by using FlowJo software (FlowJo, LLC).

CCc1cc2c(cc1OS(N)(=O)=O)CC[C@@H]1[C@@H]2CC[C@]2(C)[C@@H](CC#N)CC[C@@H]12 [STX564, 2-ethyl-3-sulfamoyloxy-17β-cyanomethylestra-1,3,5(10)-triene]
concentration at which antagonist effects on interferon-γ expression were observed (human PBMCs): ≥ 1 µM
IC50 (SOCE in rat TMBP cells): 800 nM
antagonism of Mn2+ entry (Mn2+ quenching of Fura2) [1]: almost fully
concentration at which up-regulation of CD25 was significantly reduced (TMBP cells): ≥ 0.1 µM
